Experimental data reported in patent US8841420B2, “Synthetic peptide constructs for the diagnosis and treatment of periodontis associated with Porphyromonas gingivalis” (priority 1997, dated 2014).
No end group written: not given here.

Columns and labels:
[1] = molecular target: T1, PrtRII50 Arg-specific proteinase (Porphyromonas gingivalis, UniProt P95493); type: biochemical, Porphyromonas gingivalis W50; conditions: inhibition at similar concentrations to that which inhibited the PrtR45
T1 construct: made in house; host or cells: Porphyromonas gingivalis W50 (native enzyme purified from cell sonicate, not recombinant)
Experimental: P. gingivalis W50 was grown in batch culture (5 L) and harvested at late logarithmic phase by centrifugation (5,000×g, 20 min, 4° C.). Cells were washed once with 150 ml TC buffer (20 mM Tris-HCl pH 7.4 and 5 mM CaCl2) containing 50 mM NaCl and sonicated as described previously (Bhogal et al., 1997). The sonicate was centrifuged (100,000×g, 30 min, 4° C.) and the supernatant filtered (0.22 μm) prior to anion-exchange FPLC. The sonicate was applied to an anion-exchange column (Hiload XK 16/10 Q Sepharose, Pharmacia-LKB) cooled to 4° C., in multiple injections using a 50 ml superloop (Pharmacia-LKB). The sonicate was eluted using a linear gradient from 0-100% buffer B over 90 min at a flow rate of 2.0 ml min^−1. Absorbance was monitored at 280 nm and elutant collected at 4° C. in 6 ml fractions using a Frac 100 fraction collector (Pharmacia-LKB). Buffer A was TC buffer containing 50 mM NaCl and buffer B was TC buffer containing 500 mM NaCl. Fractions were analysed for proteolytic and amidolytic activity using azocasein (A-2765, Sigma Chemical Co. St Louis, Mo.), benzoyl-L-Arg-p-nitroanilide (Bz-L-Arg-pNA, Sigma) and benzyloxycarbonyl-L-Lys-p-nitroanilide (z-L-Lys-pNA, Calbiochem, Melbourne, Australia) as described previously (Bhogal et al., 1997) except that fractions were pre-incubated with 10 mM cysteine for 10 min at 25° C. before the addition of substrate. For the amidolytic assays absorbance was monitored at 410 nm as previously described (Bhogal et al., 1997) and the amidolytic activity expressed as U where U=μmol substrate converted min^−1 at 25° C. Anion-exchange fractions eluting between 160-246 mM NaCl containing the highest ratio of Arg-specific to Lys-specific activity were, washed and concentrated in TC buffer containing 150 mM NaCl using a centripep and centricon 10 concentrators (Amicon) and applied to a gel filtration column (Superose 12, HR 10/30, Pharmacia-LKB) using TC buffer containing 150 mM NaCl at a flow rate of 0.3 ml min^−1. Absorbance was monitored at 280 nm and fractions collected at 4° C. using a Frac 100 fraction collector. The Mr values of eluant peaks were determined using gel filtration molecular mass standards (Pharmacia-LKB). The peak eluting at 50 kDa containing only Arg-specific amidolytic activity was washed in TC buffer containing 50 mM NaCl using a centricon-10 concentrator (Amicon) and applied to a Mono Q (HR 5/5) anion-exchange column using a 5 ml loop and eluted using a linear gradient of 0-100% buffer B at a flow rate 1.0 ml min^−. Buffer A was TC buffer containing 150 mM NaCl, buffer B was TC buffer containing 500 mM NaCl. Absorbance was monitored at 280 nm and fractions collected at 4° C. using a Frac 100 fraction collector.

[2] = test system: Porphyromonas gingivalis strain 33277; test: Murine lesion (abscess) model, immunisation then P. gingivalis challenge; type: in vivo, BALB/c mice; conditions: for Maximum lesion size: BALB/c mice immunised s.c. with 50 μg antigen (or 2×10^9 killed cells) in CFA then IFA, s.c. challenge 8×10^9 cells, measured over 10 days; for protection against P. gingivalis challenge (lesion size), in words: relative to DT or adjuvant alone controls
Experimental: BALB/c mice (6 per group) were inoculated (s.c.) with 50 μg of antigen emulsified in CFA and IFA for the primary and secondary inoculations and then challenged (s.c.) with 8×10^9 cells of P. gingivalis strain 33277.
BALB/c mice 6-8 weeks old were immunised subcutaneously with either 50 μg of the peptide-DT conjugate, 50 μg of DT or 2×10^9 formalin killed cells of Porphyromonas gingivalis strain 33277 emulsified in complete Freund's adjuvant (CFA). After 30 days the mice were injected subcutaneously with antigen (either 50 μg of the peptide-DT conjugate, 50 μg of DT or 2×10^9 formalin killed cells of Porphyromonas gingivalis strain 33277) emulsified in incomplete Freund's adjuvant (IFA) and then bled from the retrobulbar plexus 12 days later. All mice were challenged with 8×10^9 cells of P. gingivalis (200 μL) by subcutaneous injection in the abdomen and weighed and lesion size measured over 10 days. Lesion sizes are expressed as mm^2 and were statistically analysed using a Kruskal-Wallis one-way ANOVA and Mann-Whitney U-Wilcoxon rank sum W test.

[3] = test system: TLCK-inactivated PrtR-PrtK proteinase-adhesin complex; test: Competitive binding assay (ELISA, ABM peptide-coated plates); parameters: species or system Porphyromonas gingivalis W50; conditions: for inhibition of binding of the TLCK-inactivated PrtR-PrtK complex to the adsorbed ABM peptide: competitor in solution; for binding of the PrtR-PrtK complex to the substance: TLCK-inactivated complex
Experimental: Competitive Binding Assay
Wells of flat-bottomed polyvinyl microtitre plates (Microtitre, Dynatech Laboratories, VA) were coated overnight at 4° C. using a solution (5 mg/ml) of the adhesin binding motif (ABM) peptide in 0.1M phosphate buffered saline, pH 7.4, containing 0.1% v/v Tween 20 (PBST) and 0.1% w/v sodium azide. After removal of the coating solution, 2% w/v skim milk powder in PEST was added to block the remaining uncoated plastic for 1 hour at room temperature and then washed (4×PBST). A solution (1 mg/ml) of the PrtR-PrtK proteinase-adhesion complex (inactivated with 1 mM TLCK) was incubated with known concentrations of ABM peptide, control peptide and casein for 1 hour and then transferred to the microtitre plates coated with the ABM peptide. Following incubation for 2 hours at 37° C. the plates were washed (5×PBST). A 1/10,000 dilution of rabbit anti-PrtR-PrtK antisera in PBST containing 1% w/v skim milk powder was then added to the washed wells and incubated for 2 hours at 37° C. Bound antibody was detected by incubation with horseradish peroxidase-conjugated goat immunoglobulin (Ig) directed against rabbit Ig (BioRad, Richmond, Calif.) for 1.5 hours at 37° C. After washing (5×PBST), substrate (0.4 mM 3,3′,5,5′-tetramethylbenzidine in 0.1M sodium acetate/citric acid buffer containing 0.004% v/v hydrogen peroxide) was added and colour development was stopped by addition of 2M H2SO4. Optical density (O.D.) at 450 nm was measured using a BioRad microplate reader model 450.

T1 sequence (P95493 230-736): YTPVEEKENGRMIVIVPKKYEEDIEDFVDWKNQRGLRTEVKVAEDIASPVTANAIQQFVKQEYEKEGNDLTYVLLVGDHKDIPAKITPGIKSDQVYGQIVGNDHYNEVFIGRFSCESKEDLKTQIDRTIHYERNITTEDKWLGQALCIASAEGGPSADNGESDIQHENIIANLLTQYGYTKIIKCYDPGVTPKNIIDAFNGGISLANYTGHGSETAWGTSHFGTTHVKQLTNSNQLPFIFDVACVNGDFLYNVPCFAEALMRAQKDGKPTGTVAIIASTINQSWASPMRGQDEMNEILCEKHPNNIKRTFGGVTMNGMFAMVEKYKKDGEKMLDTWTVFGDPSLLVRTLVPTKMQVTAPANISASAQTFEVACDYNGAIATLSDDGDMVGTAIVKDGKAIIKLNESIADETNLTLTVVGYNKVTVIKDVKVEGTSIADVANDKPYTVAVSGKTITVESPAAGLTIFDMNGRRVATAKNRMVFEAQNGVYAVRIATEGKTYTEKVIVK

Row | Compound | effect on activity of the Arg-specific 50 kDa enzyme [1] | Maximum lesion size [2] [mm^2] | further results
1 | NCCc1ccc(S(=O)(=O)F)cc1 [4-(2-aminoethyl)-benzenesulfonyl fluoride] | not inhibited | – | –
2 | O=C(O)CN(CCN(CC(=O)O)CC(=O)O)CC(=O)O [EDTA] | inhibited | – | –
3 | N[C@@H](CS)C(=O)O [cysteine] | activated | – | –
4 | CC(=O)N[C@@H](CC(C)C)C(=O)N[C@@H](CC(C)C)C(=O)N[C@H](C=O)CCCNC(=N)N [leupeptin] | inhibited | – | –
5 | O=S(=O)(F)Cc1ccccc1 [phenylmethyl sulfonyl fluoride] | not inhibited | – | –
6 | ABM3 (K44)-OT: ABM3 (R44) peptide (SEQ ID NO: 98) conjugated to diphtheria toxoid (VTLKWDAPNGTPNPNPNPNPNPNPGTTTLSESF-NH2; not fully specified (N-terminus); also: conjugated to diphtheria toxoid; listed as Porphyromonas gingivalis) | – | 12.27 | –
7 | ABM4 (K44)-DT: ABM4 (K44) peptide (SEQ ID NO: 35) conjugated to diphtheria toxoid (WIERTVDLPAGTKYVAFRHY-NH2; not fully specified (N-terminus); also: conjugated to diphtheria toxoid; listed as Porphyromonas gingivalis) | – | 18.83 | –
8 | ABM5 (R15)-DT: ABM5 (R15) peptide (SEQ ID NO: 50) conjugated to diphtheria toxoid (PAEWTTIDADGDGQGW-NH2; not fully specified (N-terminus); also: conjugated to diphtheria toxoid; listed as Porphyromonas gingivalis) | – | 14.79 | –
9 | Control peptide-DT: Control peptide PrtR27 (1432-1463) (SEQ ID NO: 97) conjugated to diphtheria toxoid (ANEAKVVLAADNVWGDNTGYQFLLDADHNTFG; also: conjugated to diphtheria toxoid; listed as Porphyromonas gingivalis) [reference compound] | – | 36.61 | protection against P. gingivalis challenge (lesion size), in words [2]: did not provide protection
10 | Diphtheria Toxoid [DT, reference compound] | – | 33.59 | protection against P. gingivalis challenge (lesion size), in words [2]: does not provide protection
11 | FNGGISLANYTGHGSETAWGT (listed as Porphyromonas gingivalis) [PAS1 (R45)] | – | – | inhibition of binding of the TLCK-inactivated PrtR-PrtK complex to the adsorbed ABM peptide ([3]; FIG. 10): did not inhibit
12 | PAS1 (R45)-DT: PAS1 (R45) peptide (SEQ ID NO: 1) conjugated to diphtheria toxoid (FNGGISLANYTGHGSETAWGT; also: conjugated to diphtheria toxoid; listed as Porphyromonas gingivalis) | – | 10.46 | protection against P. gingivalis challenge (lesion size), in words [2]: Significantly reduced lesion size
13 | PYQPVSNLTATTQGQKVTLKWDAPSTK [ABM1 (R45)] | – | – | molar excess of peptide in solution required to inhibit binding of the complex to the ABM peptide adsorbed onto the microtitre plate ([3]; TLCK-inactivated PrtR-PrtK complex 1 mg/ml, FIG. 10): 5-100 fold; binding of the PrtR-PrtK complex to the substance [3]: Specific binding
14 | casein [reference compound] | – | – | binding of the PrtR-PrtK complex to the substance [3]: lack of binding; inhibition of binding of the TLCK-inactivated PrtR-PrtK complex to the adsorbed ABM peptide ([3]; FIG. 10): did not inhibit
